Reference: patent US20170196853A1 (AB SCIENCE, priority 2014, published 2017)

Columns and labels:
FYN = FYN (Homo sapiens, UniProt P06241); assay: In vitro enzymatic phosphorylation assay, FYN; assay type: biochemical
LYN = LYN (Homo sapiens, UniProt P07948); assay: In vitro enzymatic phosphorylation assay, LYN; assay type: biochemical
LYN, sequence (P07948 whole entry, species assumed): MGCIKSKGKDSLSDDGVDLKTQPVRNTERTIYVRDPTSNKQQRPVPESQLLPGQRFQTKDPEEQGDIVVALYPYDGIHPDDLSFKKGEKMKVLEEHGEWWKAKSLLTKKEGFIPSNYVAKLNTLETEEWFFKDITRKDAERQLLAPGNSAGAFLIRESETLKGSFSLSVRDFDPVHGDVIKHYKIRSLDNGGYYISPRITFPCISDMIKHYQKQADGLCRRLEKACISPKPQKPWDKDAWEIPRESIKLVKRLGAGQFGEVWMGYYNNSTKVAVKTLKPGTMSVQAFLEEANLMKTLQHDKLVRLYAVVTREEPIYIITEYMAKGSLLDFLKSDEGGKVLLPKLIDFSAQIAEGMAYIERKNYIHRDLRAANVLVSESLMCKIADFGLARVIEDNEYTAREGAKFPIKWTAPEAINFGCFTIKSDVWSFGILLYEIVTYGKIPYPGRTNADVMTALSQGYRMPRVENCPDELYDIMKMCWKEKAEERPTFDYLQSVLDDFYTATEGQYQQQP

FYN, sequence (P06241 whole entry, species assumed): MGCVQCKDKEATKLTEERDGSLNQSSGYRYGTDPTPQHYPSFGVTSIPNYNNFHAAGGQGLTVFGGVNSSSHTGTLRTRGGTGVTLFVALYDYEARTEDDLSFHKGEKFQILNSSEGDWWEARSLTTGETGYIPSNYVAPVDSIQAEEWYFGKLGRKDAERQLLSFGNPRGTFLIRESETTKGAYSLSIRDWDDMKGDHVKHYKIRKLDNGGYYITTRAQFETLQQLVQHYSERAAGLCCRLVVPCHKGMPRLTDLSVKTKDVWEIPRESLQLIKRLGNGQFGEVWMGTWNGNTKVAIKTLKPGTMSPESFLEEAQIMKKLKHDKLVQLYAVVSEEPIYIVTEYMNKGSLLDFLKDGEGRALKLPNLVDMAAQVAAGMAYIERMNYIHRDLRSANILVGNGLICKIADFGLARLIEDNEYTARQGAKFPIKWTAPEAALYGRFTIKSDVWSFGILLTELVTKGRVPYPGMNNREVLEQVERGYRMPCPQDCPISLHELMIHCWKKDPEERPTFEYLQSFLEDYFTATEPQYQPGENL

What does the source list for Cc1ccc(NC(=O)c2ccc(CN3CCN(C)CC3)cc2)cc1Nc1nc(-c2cccnc2)cs1 [masitinib, 4-(4-methylpiperazin-1-ylmethyl)-N-[4-methyl-3-(4-pyridin-3y1thiazol-2-ylamino)phenyl]benzamide]?
IC50 (FYN): 240 nM; IC50 (LYN): 220 nM
